Experimental data published in US6372212B1, “Chitinase materials and methods” (ICOS Corporation, priority 1996, dated 2002).
≈ marks a conversion by molar mass, not a printed value. Like-named read-outs stand apart in the source and are kept apart here.

Columns and labels:
[1] = tested on: Candida albicans (ATCC no. 90028); assay: Broth assay; assay type: cell-based; details: for IC50: lowest concentration inhibiting growth by at least 50%
Description: (§1) In additional experiments, the anti-fungal activity of recombinant human chitinase (produced in COS cells as described in Example 5A) was evaluated in an agar diffusion assay, in a broth assay according to National Committee on Clinical Laboratory Standards, and in a cell wall inhibition assay according to Selitrennikoff, Antimicrob. Agents Chemother., 23:757-765 (1983).
(§2) In the broth assay, 50 μg/ml of the sample (A: recombinant human chitinase, B: buffer control, C: control protein, D: a bacterial lysate with chitinase activity, or a known anti-fungal agent) was added with a certain concentration of the test fungal organism to RPMI 1640 media buffered with MOPS, pH 7.0. The samples were incubated at 35° C., with shaking at 120 rpm, for 48 hours, and then growth was evaluated by measuring the turbidity of the suspension. The approximate concentrations of the test fungi were as follows: 2.5×10^4 cells/ml of Candida albicans (ATCC no. 90028); 5×10^4 cells/ml of Candida albicans-polyene resistant (ATCC no. 38247); 1 x 10^4 cells/ml of Aspergillus fumigatus (ATCC no. 16424); 1×10^4 cells/ml of Neurospora crassa (ATCC no. 18889); and 1×10^4 cells/ml of Saccharomyces cerevisiae (ATCC no. 26108).

[2] = tested on: Aspergillus fumigatus (ATCC no. 16424); assay: Broth assay; assay type: cell-based
Description: as §1, §2

[3] = tested on: Candida albicans-polyene resistant (ATCC no. 38247); assay: Broth assay; assay type: cell-based; details: for IC50: Candida, ATCC38247, lowest concentration inhibiting growth by at least 50%
Description: as §1, §2

[4] = tested on: Saccharomyces cerevisiae (ATCC no. 26108); assay: Broth assay; assay type: cell-based; set-up: key to IC50: 0: No fungal growth; 1: growth is 25% of control; 2: growth is 50% of control; 3: growth is 75% of control; 4: growth equivalent to control; 5: growth is greater than control; details: for IC50: lowest concentration inhibiting growth by at least 50%
Description: as §1, §2

[5] = tested on: Neurospora crassa (ATCC no. 18889); assay: Broth assay; assay type: cell-based; set-up: key to Neurospora crassa Growth: 0: No fungal growth; 1: growth is 25% of control; 2: growth is 50% of control; 3: growth is 75% of control; 4: growth equivalent to control; 5: growth is greater than control; details: for IC50: Neurospora crassa, ATCC18889, lowest concentration inhibiting growth by at least 50%
Description: as §1, §2

[6] = tested on: Candida albicans (ATCC no. 90028); assay: Agar diffusion assay; assay type: cell-based; set-up: key: +: Normal growth, no inhibition of growth observed; −: Inhibited fungal growth, zone of inhibition is observed
Description: as §1
In the agar diffusion assay, approximately 1×10^6 cells/ml of Candida albicans (ATCC no. 90028) inoculated into 1.5% agar (RPMI 1640 media buffered with […] (MOPS), pH 7.0. A disk containing 50 μg of the sample (A: recombinant human chitinase, B: buffer control, C: control protein, D: a bacterial lysate with chitinase activity, or a known anti-fungal agent) was placed on the agar, and the zone of growth inhibition was measured. Results are shown in Table 1 below.

Aspergillus fumigatus = assay: Agar diffusion assay; assay type: cell-based; set-up: key: +: Normal growth, no inhibition of growth observed; −: Inhibited fungal growth, zone of inhibition is observed
[7] = tested on: os-1 cell, mutant strain of Neurospora crassa (protoplasts); assay: os-1 whole cell assay (fungal cell wall biosynthesis inhibition); assay type: cell-based; set-up: key to Cell Wall Regenertion: +: Normal cell-wall regeneration; −: Inhibited cell-wall regeneration; key to Cell Growth: +: Normal growth, no inhibition of growth observed; −: Inhibited fungal growth, zone of inhibition is observed; details: 25° C., 72 hours
[8] = tested on: os-1 cell, mutant strain of Neurospora crassa (protoplasts); assay: as above; assay type: cell-based; set-up: key to Cell Wall Regenertion: +: Normal cell-wall regeneration; −: Inhibited cell-wall regeneration; key to Cell Growth: +: Normal growth, no inhibition of growth observed; −: Inhibited fungal growth, zone of inhibition is observed
Description: as §1
The os-1 whole cell assay, which identifies inhibitors of fungal cell wall biosynthesis, was conducted essentially according to Selitrennikoff, supra, using an inoculum of 1.5×10^5 protoplasts/ml embedded in agar (Vogel's Medium N, 7.5% sorbitol, 1.5 % sucrose, 10 μg/ml nicotiniamide and 1 % agar) incubated at 25° C. for 72 hours. The cultures were monitored for changes in growth and morphology after disks containing 50 μg of the sample (A: recombinant human chitinase, B: buffer control, C: control protein, D: a bacterial lysate with chitinase activity, or a known anti-fungal agent) were placed on the agar medium. The os-1 cell is a mutant strain of Neurospora crassa that grows as protoplasts without cell walls when incubated under certain conditions at 37° C., but regenerates a cell wall under the appropriate conditions when the temperature is shifted to about 22° C.

test fungal organism = assay: Broth assay, overall conclusion; assay type: cell-based
Description: as §2

[9] = Chitotriosidase (chitinase) catalytic activity, fluorogenic substrate; assay type: biochemical
Description: Chitotriosidase (chitinase) activity was measured using the fluorogenic substrate 4-methylumbelliferyl-β-D-N,N′,N″-triacetylchitotriose (4 MU-chitotrioside, Sigma Chemical, St. Louis, Mo.) in McIlvain buffer (Hollak et al., supra). Ten μl samples of the recombinant product were combined with 10 itl bovine serum albumin (10 mg/ml), 15 μl fluorogenic substrate (2.71 mM), and 65 μl buffer (0.1M citric acid, 0.2M sodium phosphate, pH 5.2) in a total volume of 100 μl. Reactions were incubated at 37° C. for 15 minutes, then the reaction was stopped with the addition of 2 ml of 0.3M glycine/NaOH buffer (pH 10.6). The fluorescent cleavage product, 4-methylumbelliferone, was monitored with a fluorimeter (SLM-AMINCO Instruments, Inc., Rochester, N.Y.) at 450 nm. […] The known quantity of 4-MU was then correlated to the fluorescence signal from the fluorimeter and linear regression was used to determine a standard curve. The signal produced with diluted purified recombinant chitinase in the assay was then used to interpolate the nm quantity of substrate cleaved by the enzyme during the reaction time. This number was then divided by the concentration of protein to obtain the nm/min per mg protein (determined by A280 and calculated molar extinction coefficient).

[10] = set-up: species or system Female Balb/c mice; details: mouse, in vivo, iv
Description: The pharmacokinetics of recombinant human chitinase in mice were determined as follows. Female Balb/c mice, 6-8 weeks old, were injected intravenously in the tail vein with 0.5 mg/kg, 5.0 mg/kg and 50 mg/kg recombinant human chitinase. For each dose, mice were terminally bled at 0.01, 0.25, 1, 8 and 24 hours after injection (2 animals were used per time point per dosage). Serum samples were then assayed for chitinase activity and concentration.

Aspergillus fumigatis = assay: Preliminary in vitro fungal growth inhibition (turbidity of cultures); assay type: cell-based; details: 0, 2.8, 11.25, or 45 μg/ml; 24 hours; 10,000-50,000 CFU per ml
Description: (§3) In a preliminary experiment, recombinant human chitinase was tested for inhibition of fungal growth in vitro. The two fungi Candida albicans and Aspergillus fumigatis are serious pathogens for immunocompromised patients. Both Candida and Aspergillus were grown in RPMI growth media at 37° C. to approximately 10,000-50,000 colony forming units (CFU) per ml. Recombinant human chitinase (produced in COS cells as described in Example 5A) was added to cultures at 0, 2.8, 11.25, or 45 μg/ml. After 24 hours, fungal growth was assessed by turbidity of cultures. […] The concentration of fungi tested, however, is much higher than the fungal burden seen during fungal infection in vivo. Different results may be obtained under different conditions, e.g., with a lower fungal burden, or when human chitinase is tested in combination with other anti-fungal agents.

Candida albicans = assay: as above; assay type: cell-based; details: 0, 2.8, 11.25, or 45 μg/ml; 24 hours; 10,000-50,000 CFU per ml
Description: as §3

[11] = lowest concentration inhibiting growth by at least 90%
[12] = 50 μg/ml, 35° C., 48 hours, turbidity score

Nc1nc(=O)[nH]cc1F [5-fluorocytosine]
IC50 [1]: 2 μg/ml (growth is 50% of control)
IC50 ([2]; Aspergillus fumigatus, ATCC16424, lowest concentration inhibiting growth by at least 50%): 16 µg/mL (≈ 124 µM)
IC50 [3]: 0.06 µg/mL (≈ 0.465 µM)
IC50 ([4]; Saccharomyces cerevisiae, ATCC26108, read-out: IC50): 0.125 µg/mL
IC50 [5]: > 64 µg/mL

C[C@@H]1[C@H](O)[C@@H](C)/C=C/C=C/C=C/C=C/C=C/C=C/C=C/[C@H](O[C@@H]2O[C@H](C)[C@@H](O)[C@H](N)[C@@H]2O)C[C@@H]2O[C@](O)(C[C@@H](O)C[C@@H](O)[C@H](O)CC[C@@H](O)C[C@@H](O)CC(=O)O[C@H]1C)C[C@H](O)[C@H]2C(=O)O [amphotericin B]
Candida albicans Growth ([6]; 400 ng/disk): −
IC90 [1, 11]: 0.5 µg/mL (≈ 0.541 µM)
IC90 [2, 11]: 2 μg/ml (growth is 50% of control)
IC90 [3, 11]: >16 µg/mL
IC90 [5, 11]: 0.5 µg/mL
Aspergillus fumigatus Growth (Aspergillus fumigatus; 400 ng/disk): −
Cell Growth ([7]; 400 ng/disk): −
Cell Wall Regenertion ([7]; 400 ng/disk): +
Morphology ([7]; 400 ng/disk): cell debris
Radial measurement of inhibited growth from center of disk ([7]; 400 ng/disk): 10 mm^e

OC(Cn1cncn1)(Cn1cncn1)c1ccc(F)cc1F [fluconazole]
IC50 ([1]; Candida albicans, ATCC90028, read-out: IC50): 0.5 µg/mL (≈ 1.63 µM)
IC50 [3]: 16 µg/mL (≈ 52.2 µM)
IC50 [4]: 4 µg/mL
IC50 [5]: 8 µg/mL

C[C@@H]([C@H](N)C(=O)N[C@H](C(=O)O)[C@H]1O[C@@H](n2ccc(=O)[nH]c2=O)[C@H](O)[C@@H]1O)[C@H](O)c1ccc(O)cn1 [nikkomycin Z]
Cell Growth ([7]; 1 μg/disk): +
Cell Wall Regenertion ([7]; 1 μg/disk): −
Morphology ([7]; 1 μg/disk): protoplasts
Radial measurements of inhibited cell-wall regeneration from center of disk ([7]; 1 μg/disk): 30 mm^d

A: rH-Chitinase: Recombinant human chitinase (full length, pRc/CMV-MO-13B, SEQ ID NO: 4) produced in COS cells according to Example 5A
Candida albicans Growth ([6]; 50 μg/disk): +
conclusion in the os-1 whole cell assay (in words) [8]: cell wall specific inhibitor
Cell Growth ([8]; 50 μg/disk, 25° C., 72 hours): +
Cell Wall Regenertion ([8]; 50 μg/disk, 25° C., 72 hours): −
Morphology ([8]; 50 μg/disk, 25° C., 72 hours): protoplasts
Radial measurements of inhibited cell-wall regeneration from center of disk ([8]; 50 μg/disk, 25° C., 72 hours): 10 mm^d
conclusion in the broth assay (in words) (test fungal organism): mildly anti-fungal
Candida albicans Growth [1, 12]: 2 (growth is 50% of control)
Aspergillus fumigatus Growth [2, 12]: 3 (growth is 75% of control)
C. albicans-polyene resistant Growth [3, 12]: 2 (growth is 50% of control)
chitotriosidase activity ([9]; purified protein produced in COS cells, 37° C., 15 minutes, pH 5.2): 90 nm/min per mg protein
Saccharomyes cerevisiae Growth [4, 12]: 2 (growth is 50% of control)
MRT (total body mean residence time) ([10]; 0.5 mg/kg): 45 min
MRT (total body mean residence time) ([10]; 5 mg/kg): 45.6 min
MRT (total body mean residence time) ([10]; 50 mg/kg): 159 min
Neurospora crassa Growth [5, 12]: 4
Aspergillus fumigatus Growth (Aspergillus fumigatus; 50 μg/disk): +
fungal growth assessed by turbidity of cultures (Aspergillus fumigatis): comparable rates, independent of chitinase concentration
fungal growth assessed by turbidity of cultures (Candida albicans): comparable rates, independent of chitinase concentration

recombinant product: C-terminal truncated human chitinase analog (serine at position 370) expressed in E. coli from the Ara-chitinase plasmid at 25° C.
chitinase catalytic activity ([9]; E. coli transformants grown at 25° C., in words): exhibited chitinase catalytic activity
